Reference: patent US9937234B2, “Compositions and methods for using and identifying antimicrobial agents” (priority 2013, dated 2018)
“Also recorded” adds a separate entry of the source.

B1: murine CXCL10 (protein, listed as Mus musculus)
chain: MNPSAAVIFCLILLGLSGTQGIPLARTVRCNCIHIDDGPVRMRAIGKLEIIPASLSCPRVEIIATMKKNDEQRCLNPESKTIKNLMKAFSQKRSKRAP
B2: murine CXCL9 (protein, listed as Mus musculus)
chain: KSAVLFLLGIIFLEQCGVRGTLVIRNARCSCISTSRGTIHYKSLKDLKQFAPSPNCNKTEIIATLKNGDQTCLDPDSANVKKLMKEWE
B3: human CXCL11 (protein, listed as Homo sapiens)
chain: QGFPMFKRGRCLCIGPGVKAVKVADIEKASIMYPSNNCDKIEVIITLKENKGQRCLNPKSKQARLIIKKVERKNF
B4: murine CXCL11 (protein, listed as Mus musculus)
chain: QGFLMFKQGRCLCIGPGMKAVKMAEIEKASVIYPSNGCDKVEVIVTMKAHKRQRCLDPRSKQARLIMQAIEKKNF

Experiments:
[1] = system: B. anthracis Sterne strain bacilli; type: cell-based, Bacillus anthracis
[2] = system: B. anthracis Sterne strain spores; type: cell-based, Bacillus anthracis
[3] = system: E. coli ΔaceE, ΔaceF and ΔlpdA; experiment: Antimicrobial assay against E. coli PDHc subunit deletion mutants (cfu/mL); type: cell-based, Escherichia coli; details: concentrations as high as 48 μg/mL; 2 h
[4] = system: E. coli parent strain (BW25113); experiment: Antimicrobial assay against E. coli parent strain (cfu/mL); type: cell-based, Escherichia coli
E. coli ΔaceE = experiment: Antimicrobial assay against E. coli ΔaceE (cfu/mL); type: cell-based, Escherichia coli; details: 2 h
[5] = system: E. coli transposon mutants Tnx 6 and Tnx 15; experiment: Secondary screen of E. coli transposon mutants (cfu/mL); type: cell-based, Escherichia coli; details: 6 μg/mL for 2 h

Row | Molecule | antimicrobial activity against the vegetative form (bacilli) [1] | effect on spore form / spore germination [2] | hierarchy of activity in ability to kill bacilli and block spore germination [1] | hierarchy of direct antimicrobial activity [1] | further results
1 | CCL2 [reference compound] | no antimicrobial activity | no antimicrobial activity | – | – | –
2 | CCL5 [reference compound] | no antimicrobial activity | no antimicrobial activity | – | – | –
3 | human CXCL9 | directly kill vegetative cells; also recorded: antimicrobial activity against the vegetative form | direct inhibitory effects on spore germination; also recorded: spore germination was blocked or reduced | CXCL10>CXCL9>CXCL11 | hCXCL10>hCXCL9>hCXCL11 | –
4 | human CXCL10 | directly kill vegetative cells; also recorded: antimicrobial activity against the vegetative form | direct inhibitory effects on spore germination; also recorded: spore germination was blocked or reduced | CXCL10>CXCL9>CXCL11 | hCXCL10>hCXCL9>hCXCL11 | susceptibility of ΔaceE, ΔaceF and ΔlpdA deletion mutants [3]: equally resistant; effect on parent strain ([4]; 6 μg/mL): not entirely killed; effect on parent strain ([4]; 10 μg/mL for 2 hours): killed; effect on parent strain ([4]; 36 μg/mL (4.2 μM) and 48 μg/mL (5.6 μM)): killed; susceptibility of parent strain complemented with empty vector or aceE vector ([4]; pBR322 or pUVA411, increasing concentrations, 2 h): remained similarly susceptible; EC50 value [1]: 4 to 6 µg/mL; EC50 value, killing effect [1]: 0.33 µg/mL; more potent killing effect, stationary vs exponential phase [1]: > 10 fold; susceptibility of ΔaceE (E. coli ΔaceE; increasing concentrations, compared to parent strain): significantly less susceptible; also recorded: exhibits resistance; also recorded: resistant; susceptibility of ΔaceE complemented with aceE (E. coli ΔaceE; plasmid pUVA411 (aceE)): restored susceptibility; also recorded: restores the parent strain susceptibility phenotype; susceptibility of Tnx 6 and Tnx 15 in relation to the parent strain [5]: significantly decreased susceptibility
5 | B1 | – | – | CXCL9>CXCL10>CXCL11 | mCXCL9>mCXCL10>mCXCL11 | –
6 | B2 | – | – | CXCL9>CXCL10>CXCL11 | mCXCL9>mCXCL10>mCXCL11 | –
7 | B3 | directly kill vegetative cells; also recorded: antimicrobial activity against the vegetative form | direct inhibitory effects on spore germination; also recorded: spore germination was blocked or reduced | CXCL10>CXCL9>CXCL11 | hCXCL10>hCXCL9>hCXCL11 | –
8 | B4 | – | – | CXCL9>CXCL10>CXCL11 | mCXCL9>mCXCL10>mCXCL11 | –
